Earlier results, collected in patent publication US5637565A, “Purified form of streptogramins, its preparation and pharmaceutical compositions containing it” (Rhone-Poulenc Rorer S.A., priority 1993, dated 1997).

Details: purified crystalline product

For `CC1=C\[C@@H](O)CC(=O)Cc2nc(co2)C(=O)N2CCC=C2C(=O)O[C@H](C(C)C)[C@H](C)/C=C/C(=O)NC\C=C\1` [pristinamycin IIA], the bioavailability is given as “too low”.
